This note sets out measurements from US9062041B2 (Bayer Intellectual Property GmbH, priority 2011, dated 2015).

Type in all cases: cell-based
Experiment [1] concerns the target T1, human PGD receptor (Homo sapiens, UniProt Q13258).
T1 sequence (Q13258 1-359): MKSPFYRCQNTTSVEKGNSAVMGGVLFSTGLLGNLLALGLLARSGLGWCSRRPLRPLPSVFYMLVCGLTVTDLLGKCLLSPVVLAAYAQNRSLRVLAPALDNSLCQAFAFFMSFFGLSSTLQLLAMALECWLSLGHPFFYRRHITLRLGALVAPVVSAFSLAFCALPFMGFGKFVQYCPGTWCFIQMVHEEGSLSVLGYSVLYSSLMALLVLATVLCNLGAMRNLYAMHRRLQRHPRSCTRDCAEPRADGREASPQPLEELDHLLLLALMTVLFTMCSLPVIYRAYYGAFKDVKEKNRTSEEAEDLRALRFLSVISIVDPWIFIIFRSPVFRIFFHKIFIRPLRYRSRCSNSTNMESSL
The experiment in a line: cAMP antagonism test on the human prostaglandin D receptor (HTRF cAMP detection). The conditions noted are these: selectivity towards hDP, IC50 measured by cAMP antagonism test. From the text: 3. Detection of Antagonism to the Human Prostaglandin D Receptor Signal
The binding of prostaglandin D2 to the human PGD receptor induces the activation of membrane-located adenylate cyclases and leads to the formation of cAMP. In the presence of the phosphodiesterase inhibitor IBMX, the cAMP accumulated owing to this stimulation and released by cell lysis is used in a competitive detection method. In this test, the cAMP present in the lysate competes with a fluorescence-labelled cAMP (cAMP-d2) for binding to an Eu cryptate-labelled anti-cAMP antibody.
(§1) In the absence of cellular cAMP, a maximal signal is produced, which is attributable to the binding of this cAMP-d2 molecule to the antibody. After excitation of the […] at 337 nm, there is a fluorescence resonance energy transfer (FRET) to the Eu cryptate molecules of the anti-cAMP antibody (labelled therewith), followed by a long-lasting emission signal at 665 nm (and at […]). Both signals are measured in a suitable measurement instrument with a time delay, i.e. after decay of the background fluorescence. Any increase in the low FRET signal caused by prostaglandin E2 administration (measured as well ratio change=emission665 nm/emission620 nm*10000) indicates the action of antagonists.
3.2.1. Test for Antagonism (Data Per Well of a 384-Well Plate):
To a test plate with the substance solutions already added (0.05 μl; 100% DMSO, concentration range from 0.8 nM-16.5 μM) were added 4 μl of a cAMP-d2/cell suspension (625000 cells/ml). After a 20-minute preincubation at room temperature (RT), 2 μl of a 3×PGD2 solution (6 nM, in PBS-IBMX) were added and incubated in the presence of the agonist for a further 30 mins at RT (volume: ˜6 μl). Next the reaction was stopped by addition of 2 μl of lysis buffer and incubated for a further 20 mins at RT before the actual measurement (volume: ˜8 μl).

Experiment [2] addresses EP4 subtype of the human PGE2 receptor (Homo sapiens, UniProt P35408). The experiment in a line: cAMP antagonism test on the human EP4 receptor (HTRF cAMP detection). Particulars: selectivity towards hEP4, IC50 measured by cAMP antagonism test.
Text: 2. Detection of Antagonism to the Human Prostaglandin E2 (Subtype EP4) Receptor Signal
The binding of PGE2 to the EP4 subtype of the human PGE2 receptor induces the activation of membrane-located adenylate cyclases and leads to the formation of cAMP. In the presence of the phosphodiesterase inhibitor IBMX, the cAMP accumulated owing to this stimulation and released by cell lysis is used in a competitive detection method. In this test, the cAMP present in the lysate competes with a fluorescence-labelled cAMP (cAMP-d2) for binding to an Eu cryptate-labelled anti-cAMP antibody.
as §1, with “cAMP” for “cAMP,”
2.2.1. Test for Antagonism (Data Per Well of a 384-Well Plate):
To a test plate with the substance solutions already added (0.05 μl; 100% DMSO, concentration range from 0.8 nM-16.5 μM) were added 4 μl of a cAMP-d2/cell suspension (312500 cells/ml). After a 20-minute preincubation at room temperature (RT), 2 μl of a 3×PGE2 solution (0.3 nM, in PBS-IBMX) were added and incubated in the presence of the agonist for a further 60 mins at RT (volume: ˜6 μl). Next the reaction was stopped by addition of 2 μl of lysis buffer and incubated for a further 20 mins at RT before the actual measurement (volume: ˜8 μl).
On the technique in general: In TR-FRET formats the signal depends on donor and acceptor labels being close together.

Experiment [3] has as its target EP2 subtype of the human PGE2 receptor (Homo sapiens, UniProt P43116). The experiment in a line: cAMP antagonism test on the human EP2 receptor (HTRF cAMP detection). The conditions noted are these: hEP2 receptor, read-out: Antagonism hEP2 IC50.
Text: 1. Detection of Antagonism to the Human Prostaglandin E2 (Subtype EP2) Receptor Signal
The binding of PGE2 to the EP2 subtype of the human PGE2 receptor induces the activation of membrane-located adenylate cyclases and leads to the formation of cAMP. In the presence of the phosphodiesterase inhibitor IBMX, the cAMP accumulated owing to this stimulation and released by cell lysis is used in a competitive detection method. In this test, the cAMP present in the lysate competes with a fluorescence-labelled cAMP (cAMP-d2) for binding to an Eu cryptate-labelled anti-cAMP antibody.
as §1
1.2.1. Test for Antagonism (Data Per Well of a 384-Well Plate):
To a test plate with the substance solutions already added (0.05 μl; 100% DMSO, concentration range from 0.8 nM-16.5 μM) were added 4 μl of a cAMP-d2/cell suspension (625000 cells/ml). After a 20-minute preincubation at room temperature (RT), 2 μl of a 3×PGE2 solution (1.5 nM, in PBS-IBMX) were added and incubated in the presence of the agonist for a further 60 mins at RT (volume: ˜6 μl). Next the reaction was stopped by addition of 2 μl of lysis buffer and incubated for a further 20 mins at RT before the actual measurement (volume: ˜8 μl).

By IC50 is commonly meant the point on the concentration scale where inhibition reaches its midpoint.

Sequence of EP4 subtype of the human PGE2 receptor (P35408 whole entry): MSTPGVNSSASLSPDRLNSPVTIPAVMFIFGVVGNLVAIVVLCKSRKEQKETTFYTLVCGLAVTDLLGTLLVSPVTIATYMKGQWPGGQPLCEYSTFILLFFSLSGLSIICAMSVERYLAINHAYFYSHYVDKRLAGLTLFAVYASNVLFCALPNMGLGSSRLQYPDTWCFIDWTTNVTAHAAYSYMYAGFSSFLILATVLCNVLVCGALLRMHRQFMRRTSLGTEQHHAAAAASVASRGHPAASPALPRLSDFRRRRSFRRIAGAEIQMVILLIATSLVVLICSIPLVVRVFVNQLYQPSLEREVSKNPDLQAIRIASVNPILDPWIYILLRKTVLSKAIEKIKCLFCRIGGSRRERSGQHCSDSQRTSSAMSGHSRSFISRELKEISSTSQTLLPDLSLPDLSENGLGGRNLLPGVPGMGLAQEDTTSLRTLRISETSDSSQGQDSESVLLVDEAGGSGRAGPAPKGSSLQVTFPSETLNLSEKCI
Sequence of EP2 subtype of the human PGE2 receptor (P43116 whole entry): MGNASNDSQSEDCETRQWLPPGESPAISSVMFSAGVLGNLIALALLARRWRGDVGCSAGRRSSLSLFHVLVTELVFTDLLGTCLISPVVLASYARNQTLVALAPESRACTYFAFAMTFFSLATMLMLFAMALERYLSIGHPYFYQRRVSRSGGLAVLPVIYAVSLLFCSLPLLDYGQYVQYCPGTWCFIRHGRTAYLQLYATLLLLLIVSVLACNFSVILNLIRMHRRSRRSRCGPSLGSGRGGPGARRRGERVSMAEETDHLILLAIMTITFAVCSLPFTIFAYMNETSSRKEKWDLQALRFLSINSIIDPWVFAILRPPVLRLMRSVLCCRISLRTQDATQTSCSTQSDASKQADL

As to `Cc1c(C(=O)NCC(C)OCC2CC2)ccc2nn(CC3CCN(C(=O)c4ccc(-c5ccc(F)cc5)cc4)CC3)cc12` (racemic) [Example 105, (+/−)-N-[2-(cyclo-propylmethoxy)-propyl]-2-({l-[(4′-fluorobiphenyl-4-yl)carbonyl]-piperidin-4-yl}-methyl)-4-methyl-2H-indazol-5-carboxamide], in experiment [1], the “Selectivity hEP2/hDP” value is given as “xx (xx: 10-100)”. In addition, the “Selectivity hEP2/hEP4” value in experiment [2] is on record as “xx (xx: 10-100)”. Moreover, the IC50 in experiment [3] is 285 nM.

`Cc1c(C(=O)NCCS(C)(=O)=O)ccc2nn(CC3CCN(C(=O)c4ccc(Oc5ccc(C(F)(F)F)cc5)cc4)CC3)cc12` [Example 245, N-(2-mesylethyl)-4-methyl-2-[(1-{4-[4-(trifluoromethyl)phenoxy]benzoyl}-piperidin-4-yl)methyl]-2H-indazol-5-carboxamide]: in experiment [1], the “Selectivity hEP2/hDP” value is given as “xxx (xxx > 100)”. The “Selectivity hEP2/hEP4” value in experiment [2] was “xxx (xxx > 100)”. Moreover, the IC50 in experiment [3] was determined as 7.79 nM.

Regarding `Cc1c(C(=O)NCCOC(C)C)ccc2nn(CC3CCN(C(=O)c4ccc(C5CC5)cc4)CC3)cc12` [Example 101, 2-{[1-(4-cyclopropyl-benzoyl)piperidin-4-yl]methyl}-N-(2-isopropoxyethyl)-4-methyl-2H-indazol-5-carboxamide], the “Selectivity hEP2/hDP” value in experiment [1] is given as “xxx (xxx > 100)”. In addition, the “Selectivity hEP2/hEP4” value in experiment [2] was “xxx (xxx > 100)”. In experiment [3], the IC50 was found to be 6.58 nM.

With `COCCNC(=O)c1ccc2nn(CC3CCN(C(=O)c4ccc(S(F)(F)(F)(F)F)cc4)CC3)cc2c1C` [Example 11, N-(2-methoxyethyl)-4-methyl-2-({1-[4-(pentafluoro-λ^6-sulphanyl)benzoyl]piperidin-4-yl}methyl)-2H-indazol-5-carboxamide], the “Selectivity hEP2/hDP” value in experiment [1] is given as “xxx (xxx > 100)”. In experiment [2], the “Selectivity hEP2/hEP4” value was “xxx (xxx > 100)”. In experiment [3], the IC50 is 8.14 nM.

On to `Cc1c(C(=O)NCCOCC(F)(F)F)ccc2nn(CC3CCN(C(=O)c4ccc(Oc5ccc(F)cc5)cc4)CC3)cc12` [Example 92, 2-({1-[4-(4-fluoro-phenoxy)benzoyl]-piperidin-4-yl}-methyl)-4-methyl-N-[2-(2,2,2-tri-fluoroethoxy)ethyl]-2H-indazol-5-carboxamide], for which, in experiment [1], the “Selectivity hEP2/hDP” value is recorded as “xxx (xxx > 100)”. The “Selectivity hEP2/hEP4” value in experiment [2] is recorded as “xxx (xxx > 100)”. In experiment [3], the IC50 is 12.7 nM.

With `COCCNC(=O)c1ccc2nn(CC3CCN(C(=O)c4nc5ccccc5o4)CC3)cc2c1C` [Example 340, 2-{[1-(benzoxazol-2-ylcarbonyl)piperidin-4-yl]methyl}-N-(2-methoxyethyl)-4-methyl-2H-indazol-5-carboxamide], the “Selectivity hEP2/hDP” value in experiment [1] is recorded as “xxx (xxx > 100)”. For the same compound, the “Selectivity hEP2/hEP4” value in experiment [2] is “xxx (xxx > 100)”. In addition, the IC50 in experiment [3] came to 19.9 nM.

Turning to `Cc1c(C(=O)NCC(F)(F)F)ccc2nn(CC3CCN(C(=O)c4cc5cc(F)ccc5n4C)CC3)cc12` [Example 292, 2-({1-[(5-fluoro-1-methyl-1H-indol-2-yl)carbonyl]piperidin-4-yl}methyl)-4-methyl-N-(2,2,2-trifluoroethyl)-2H-indazol-5-carboxamide], in experiment [1], the “Selectivity hEP2/hDP” value was “xxx (xxx > 100)”. For the same compound, the “Selectivity hEP2/hEP4” value in experiment [2] is listed as “xxx (xxx > 100)”. In addition, the IC50 in experiment [3] stood at 20 nM.

For the compound `COCCNC(=O)c1ccc2nn(CC3CCN(C(=O)c4cnc(-c5ccccc5)o4)CC3)cc2c1C` [Example 339, N-(2-methoxyethyl)-4-methyl-2-({1-[(2-phenyloxazol-5-yl)carbonyl]piperidin-4-yl}methyl)-2H-indazol-5-carboxamide], the “Selectivity hEP2/hDP” value in experiment [1] is on record as “xxx (xxx > 100)”. Moreover, the “Selectivity hEP2/hEP4” value in experiment [2] is “xxx (xxx > 100)”. In experiment [3], the concentration for half-maximal inhibition (IC50) was found to be 7.15 nM.

In the case of `COCCNC(=O)c1ccc2nn(CC3CCN(C(=O)c4ccc(OC5CCOCC5)cc4)CC3)cc2c1C` [Example 353, N-(2-methoxyethyl)-4-methyl-2-({1-[4-(3,4,5,6-tetrahydro-2H-pyran-4-yloxy)-benzoyl]piperidin-4-yl}methyl)-2H-indazol-5-carboxamide], the “Selectivity hEP2/hDP” value in experiment [1] is recorded as “xxx (xxx > 100)”. Further, in experiment [2], the “Selectivity hEP2/hEP4” value is given as “xxx (xxx > 100)”. Also, the IC50 in experiment [3] came to 50.2 nM.

With `Cc1c(C(=O)NCC(F)(F)F)ccc2nn(CC3CN(C(=O)c4ccc(Cl)cc4)C3)cc12` [Example 129, 2-{[1-(4-chlorobenzoyl)azetidin-3-yl]methyl}-4-methyl-N-(2,2,2-trifluoroethyl)-2H-indazol-5-carboxamide], the “Selectivity hEP2/hDP” value in experiment [1] is listed as “xx (xx: 10-100)”. Further, in experiment [2], the “Selectivity hEP2/hEP4” value is on record as “xx (xx: 10-100)”. The IC50 in experiment [3] stood at 309 nM.

In the case of `Cc1ccc(Oc2ccc(C(=O)N3CCC(Cn4cc5c(C)c(C(=O)NCC(F)(F)F)ccc5n4)CC3)cc2)cc1` [Example 285, 4-methyl-2-({1-[4-(4-methylphenoxy)benzoyl]piperidin-4-yl}methyl)-N-(2,2,2-trifluoroethyl)-2H-indazol-5-carboxamide], in experiment [1], the “Selectivity hEP2/hDP” value is given as “xxx (xxx > 100)”. Moreover, the “Selectivity hEP2/hEP4” value in experiment [2] is given as “xxx (xxx > 100)”. In addition, the concentration for half-maximal inhibition (IC50) in experiment [3] was 100 nM.

Consider `Cc1c(C(=O)NCC(C)OCC2CC2)ccc2nn(CC3CCN(C(=O)c4ccc(C(F)(F)F)cc4)CC3)cc12` (racemic) [Example 104, (+/−)-N-[2-(cyclo-propylmethoxy)-propyl]-4-methyl-2-({1-[4-(trifluoro-mcthyl)benzoyl]-piperidin-4-yl}-methyl)-2H-indazol-5-carboxamide], for which the “Selectivity hEP2/hDP” value in experiment [1] is recorded as “xx (xx: 10-100)”. Besides, in experiment [2], the “Selectivity hEP2/hEP4” value is reported as “xx (xx: 10-100)”. Also, the IC50 in experiment [3] is 513 nM.
